# From patent publication US20080103205A1, “Pesticidal compositions and methods of use” (priority 2006, published 2008)
# Like-named read-outs stand apart in the source and are kept apart here.
# How the values were obtained:
# [1] = system: Meloidogyne incognita eggs; assay: M. incognita egg hatching; format: in vivo
# Description: Meloidogyne incognita (plant parasitic nematode) eggs were collected from tomato plant roots and were suspended in water. The solution was either diluted or concentrated to adjust the egg load to about 5000/ml. AT stock solutions prepared in DMSO and 300 ul of test solution was placed in a well, along with 20 ul of aqueous solution containing eggs. The number of eggs in 20 ul solution ranged from 115 to 143 (n=10). Each treatment (2, 5, 10, 20, or 40 ppm) was replicated 5 times. Microplates were sealed with Parafilm™ and incubated at room temperature. Similar tests conducted with 0.2% DMSO alone served as controls. Egg hatching was monitored at 24, 72, 120, and 168 hr after incubation. Both moving and non-moving nematodes were counted to arrive at the number of eggs hatched. Proportion of egg hatch was calculated as the number of juveniles divided by total number of eggs.
# VSCC blockers effect on M. incognita egg hatching is shown in the following tables where % hatched is rounded to the nearest percentage point and where “% C*” is % hatch, normalized to control.
# [2] = system: Meloidogyne incognita; assay: Toxicity test, J2 juveniles of Meloidogyne incognita, 96 well micro plate; format: in vivo; settings: for mortality at 50 ppm / mortality at 100 ppm / mortality at 200 ppm / mortality at 300 ppm / mortality at 400 ppm: Meloidogyne incognita
# Description: Methodology: Toxicity tests were conducted using J2 juveniles of Meloidogyne incognita adult Caenorhabditis elegans collected from nematode-infested tomato plant roots and culture Petri plates, respectively. Test concentrations of 50, 100, 200, 300, or 400 ppm were prepared in 0.2% dimethylsulfoxide (DMSO) in tap water. Aliquots (300 microliters (ul)) were applied to a 96 well micro plate and a 20 ul aqueous solution containing nematodes was added. The number of nematodes in 20 ul ranged from 17 to 30. Micro plates were sealed with Parafilm™ and incubated at room temperature. Similar tests conducted with 0.2% DMSO in tap water served as controls. Nematode mortality was checked at 24, 48, 72, 120, and 168 hr after incubation. Nematodes that were motionless for 30 sec when observed under a stereomicroscope were considered paralyzed and included in mortality counts. Each concentration was replicated five times and mean percent mortality was calculated after correcting for control mortality using Abbott's formula.
# Data Analysis: Mortality data were analyzed using PROC PROBIT (SAS) program and LC50 values were estimated.
# [3] = 24 hr, read-out: Corrected Mortality (%)
# [4] = 48 hr, read-out: Corrected Mortality (%)
# [5] = 72 hr, read-out: Corrected Mortality (%)
# [6] = 120 hr, read-out: Corrected Mortality (%)
# [7] = 120 hr, read-out: Mortality (%)
# [8] = 168 hr, read-out: Corrected Mortality (%)
# [9] = 168 hr, read-out: Mortality (%)
compound,measurement,setting,value
"O=S(=O)(O)c1cc(N=C=S)ccc1/C=C/c1ccc(N=C=S)cc1S(=O)(=O)O [DIDS, trans-4,4′-diisothiocyanatostilbene-2,2′-disulfonic acid, reference compound]",Eggs Hatched %,"[1]; 2 ppm, 24 hr",10%
same,"Eggs Hatched % C* (% hatch, normalized to control)","[1]; 2 ppm, 24 hr",100%
same,Eggs Hatched No.,"[1]; 2 ppm, 24 hr",66
same,Eggs Hatched %,"[1]; 2 ppm, 72 hr",14%
same,"Eggs Hatched % C* (% hatch, normalized to control)","[1]; 2 ppm, 72 hr",87%
same,Eggs Hatched No.,"[1]; 2 ppm, 72 hr",95
same,Eggs Hatched %,"[1]; 2 ppm, 120 hr",19%
same,"Eggs Hatched % C* (% hatch, normalized to control)","[1]; 2 ppm, 120 hr",86%
same,Eggs Hatched No.,"[1]; 2 ppm, 120 hr",128
same,Eggs Hatched %,"[1]; 2 ppm, 168 hr",22%
same,"Eggs Hatched % C* (% hatch, normalized to control)","[1]; 2 ppm, 168 hr",79%
same,Eggs Hatched No.,"[1]; 2 ppm, 168 hr",162
same,Eggs Hatched %,"[1]; 5 ppm, 24 hr",9%
same,"Eggs Hatched % C* (% hatch, normalized to control)","[1]; 5 ppm, 24 hr",90%
same,Eggs Hatched No.,"[1]; 5 ppm, 24 hr",62
same,Eggs Hatched %,"[1]; 5 ppm, 72 hr",13%
same,"Eggs Hatched % C* (% hatch, normalized to control)","[1]; 5 ppm, 72 hr",81%
same,Eggs Hatched No.,"[1]; 5 ppm, 72 hr",91
same,Eggs Hatched %,"[1]; 5 ppm, 120 hr",17%
same,"Eggs Hatched % C* (% hatch, normalized to control)","[1]; 5 ppm, 120 hr",77%
same,Eggs Hatched No.,"[1]; 5 ppm, 120 hr",129
same,Eggs Hatched %,"[1]; 5 ppm, 168 hr",21%
same,"Eggs Hatched % C* (% hatch, normalized to control)","[1]; 5 ppm, 168 hr",75%
same,Eggs Hatched No.,"[1]; 5 ppm, 168 hr",159
same,Eggs Hatched %,"[1]; 10 ppm, 24 hr",9%
same,"Eggs Hatched % C* (% hatch, normalized to control)","[1]; 10 ppm, 24 hr",90%
same,Eggs Hatched No.,"[1]; 10 ppm, 24 hr",60
same,Eggs Hatched %,"[1]; 10 ppm, 72 hr",13%
same,"Eggs Hatched % C* (% hatch, normalized to control)","[1]; 10 ppm, 72 hr",81%
same,Eggs Hatched No.,"[1]; 10 ppm, 72 hr",83
same,Eggs Hatched %,"[1]; 10 ppm, 120 hr",15%
same,"Eggs Hatched % C* (% hatch, normalized to control)","[1]; 10 ppm, 120 hr",68%
same,Eggs Hatched No.,"[1]; 10 ppm, 120 hr",103
same,Eggs Hatched %,"[1]; 10 ppm, 168 hr",18%
same,"Eggs Hatched % C* (% hatch, normalized to control)","[1]; 10 ppm, 168 hr",64%
same,Eggs Hatched No.,"[1]; 10 ppm, 168 hr",136
same,Eggs Hatched %,"[1]; 20 ppm, 24 hr",8%
same,"Eggs Hatched % C* (% hatch, normalized to control)","[1]; 20 ppm, 24 hr",80%
same,Eggs Hatched No.,"[1]; 20 ppm, 24 hr",51
same,Eggs Hatched %,"[1]; 20 ppm, 72 hr",11%
same,"Eggs Hatched % C* (% hatch, normalized to control)","[1]; 20 ppm, 72 hr",69%
same,Eggs Hatched No.,"[1]; 20 ppm, 72 hr",64
same,Eggs Hatched %,"[1]; 20 ppm, 120 hr",12%
same,"Eggs Hatched % C* (% hatch, normalized to control)","[1]; 20 ppm, 120 hr",55%
same,Eggs Hatched No.,"[1]; 20 ppm, 120 hr",79
same,Eggs Hatched %,"[1]; 20 ppm, 168 hr",15%
same,"Eggs Hatched % C* (% hatch, normalized to control)","[1]; 20 ppm, 168 hr",54%
same,Eggs Hatched No.,"[1]; 20 ppm, 168 hr",99
same,Eggs Hatched %,"[1]; 40 ppm, 24 hr",7%
same,"Eggs Hatched % C* (% hatch, normalized to control)","[1]; 40 ppm, 24 hr",70%
same,Eggs Hatched No.,"[1]; 40 ppm, 24 hr",48
same,Eggs Hatched %,"[1]; 40 ppm, 72 hr",10%
same,"Eggs Hatched % C* (% hatch, normalized to control)","[1]; 40 ppm, 72 hr",62%
same,Eggs Hatched No.,"[1]; 40 ppm, 72 hr",55
same,Eggs Hatched %,"[1]; 40 ppm, 120 hr",10%
same,"Eggs Hatched % C* (% hatch, normalized to control)","[1]; 40 ppm, 120 hr",45%
same,Eggs Hatched No.,"[1]; 40 ppm, 120 hr",63
same,Eggs Hatched %,"[1]; 40 ppm, 168 hr",11%
same,"Eggs Hatched % C* (% hatch, normalized to control)","[1]; 40 ppm, 168 hr",39%
same,Eggs Hatched No.,"[1]; 40 ppm, 168 hr",75
same,LC50 (ppm),[2]; Day 2,356 ppm
same,LC50 (ppm),[2]; Day 3,36 ppm
same,LC50 (ppm),[2]; Day 5,20 ppm
same,LC50 (ppm),[2]; Day 7,4 ppm
same,mortality at 50 ppm,[2]; [3],9%
same,mortality at 50 ppm,"[2]; 24 hr, read-out: Mortality (%)",11%
same,mortality at 50 ppm,[2]; [4],36%
same,mortality at 50 ppm,"[2]; 48 hr, read-out: Mortality (%)",39%
same,mortality at 50 ppm,[2]; [5],56%
same,mortality at 50 ppm,"[2]; 72 hr, read-out: Mortality (%)",59%
same,mortality at 50 ppm,[2]; [6],73%
same,mortality at 50 ppm,[2]; [7],75%
same,mortality at 50 ppm,[2]; [8],98%
same,mortality at 50 ppm,[2]; [9],98%
same,mortality at 100 ppm,[2]; [3],16%
same,mortality at 100 ppm,"[2]; 24 hr, read-out: Mortality (%)",18%
same,mortality at 100 ppm,[2]; [4],39%
same,mortality at 100 ppm,"[2]; 48 hr, read-out: Mortality (%)",41%
same,mortality at 100 ppm,[2]; [5],61%
same,mortality at 100 ppm,"[2]; 72 hr, read-out: Mortality (%)",64%
same,mortality at 100 ppm,[2]; [6],84%
same,mortality at 100 ppm,[2]; [7],85%
same,mortality at 100 ppm,[2]; [8],99%
same,mortality at 100 ppm,[2]; [9],99%
same,mortality at 200 ppm,[2]; [3],19%
same,mortality at 200 ppm,"[2]; 24 hr, read-out: Mortality (%)",21%
same,mortality at 200 ppm,[2]; [4],43%
same,mortality at 200 ppm,"[2]; 48 hr, read-out: Mortality (%)",45%
same,mortality at 200 ppm,[2]; [5],67%
same,mortality at 200 ppm,"[2]; 72 hr, read-out: Mortality (%)",69%
same,mortality at 200 ppm,[2]; [6],90%
same,mortality at 200 ppm,[2]; [7],91%
same,mortality at 200 ppm,[2]; [8],100%
same,mortality at 200 ppm,[2]; [9],100%
same,mortality at 300 ppm,[2]; [3],20%
same,mortality at 300 ppm,"[2]; 24 hr, read-out: Mortality (%)",22%
same,mortality at 300 ppm,[2]; [4],46%
same,mortality at 300 ppm,"[2]; 48 hr, read-out: Mortality (%)",48%
same,mortality at 300 ppm,[2]; [5],77%
same,mortality at 300 ppm,"[2]; 72 hr, read-out: Mortality (%)",79%
same,mortality at 300 ppm,[2]; [6],96%
same,mortality at 300 ppm,[2]; [7],96%
same,mortality at 300 ppm,[2]; [8],100%
same,mortality at 300 ppm,[2]; [9],100%
same,mortality at 400 ppm,[2]; [3],22%
same,mortality at 400 ppm,"[2]; 24 hr, read-out: Mortality (%)",24%
same,mortality at 400 ppm,[2]; [4],55%
same,mortality at 400 ppm,"[2]; 48 hr, read-out: Mortality (%)",57%
same,mortality at 400 ppm,[2]; [5],78%
same,mortality at 400 ppm,"[2]; 72 hr, read-out: Mortality (%)",89%
same,mortality at 400 ppm,[2]; [6],100%
same,mortality at 400 ppm,[2]; [7],100%
same,mortality at 400 ppm,[2]; [8],100%
same,mortality at 400 ppm,[2]; [9],100%
